Measured values as given in patent publication US9028856B2, “Synergistic pesticide compositions” (priority 2008, dated 2015).

Assays:
[1] = type: physicochemical; conditions: classified from Log P
Text: As used herein, a “partition coefficient” is defined as the ratio of concentrations of an un-ionized compound between solutions of water and octanol. To measure the partition coefficient of ionizable solutes, the pH of the aqueous phase is adjusted such that the predominant form of the compound is un-ionized. The logarithm of the ratio of the concentrations of the un-ionized solute in the solvents is referred to herein as log P or log K ow.
As noted herein, the octanol-water partition coefficient may be used to identify the cuticular penetration of a particular active ingredient. One factor in the relative speed through which any insecticide acts is the insecticide's ability to cross the insect cuticle. A determining factor for cuticle penetration is Log K ow, also known as Log P. Log K ow (Log P) is the octanol-water partition coefficient for a neutral molecule. Log P is used hereinfurther, but, as noted above, the term is synonymous with Log K ow. As previously noted, the cuticular penetration of any particular active ingredient as against a plant cuticle is not indicative of that same active ingredient's ability to penetrate an insect cuticle.
The cuticular penetration of a compound is classified as “INTERMEDIATE” when the Log P value is between about 2.0 and about 4.0.

Aedes aegypti mosquito = test: USDA Petri Dish Method, 3 min exposure to treated glazed tile; type: in vivo; conditions: Aedes aegypti, glazed tile, 3 min exposure
How it was run: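 Resmethrin or clothianidin in acetone, with or without adjuvant, applied to glazed tile and dried overnight; twenty 4-6 day old female mosquitoes exposed 3 minutes, then moved to clean index card. Knockdown scored at intervals over hours; mortality at 24 hours with sucrose provided; at least three replicates.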

[2] = octanol-water partition coefficient (Log K ow), Table 1; cited from earlier work
[3] = system: Musca domestica, susceptible strain WHO(N); test: Topical insecticide application to houseflies; type: in vivo; conditions: 0.5 μl per fly, % a.i. conc. in acetone, Table 95
Procedure: Male Musca domestica, susceptible strain WHO(N), or other strains were used.
The flies were anaesthetized with CO2, and ten individuals were positioned (on their back) on a filter paper which was on the top of a carbon dioxide emitting device. […]
Afterwards the insects were transferred into a beaker closed by a gauze lid with a water saturated cotton pad on the top.
At regular intervals, mortality was recorded (cumulatively).

[4] = system: Argentine ant, Linepithema humile; test: Knockdown/mortality of ant workers under continuous exposure on treated glazed tile
How it was run: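 0.5% AI imidacloprid in acetone, alone or with 0.1, 1.0 or 5.0% additive (benzenepropanoic acid, oleic acid, methyl oleate, methyl linoleate, methyl palmitate or BHA), 1 ml dried overnight on glazed tile (~161 cm^2). Ten workers confined under continuous exposure, water from 3 h; knockdown/mortality scored at intervals and 24 h; ≥3 replicates.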

[5] = system: Culex quinquefasciatus mosquito; test: USDA Petri Dish Method, 3 min exposure to treated glazed tile (twenty 4-6 day old females); type: in vivo; conditions: fipronil 0.01% AI with or without adjuvant
Procedure: MATERIALS AND METHODS: Solutions of resmethrin at 1 and 0.5% AI were prepared with and without adjuvant in acetone. […] USDA Petri Dish Method was used as initial screening protocol. Twenty, 4-6 day old female Culex quinquefasciatus mosquitoes were exposed to each treatment for 3 minutes and then moved to a clean untreated white paper index card. Treatments were replicated a minimum of three times. Mosquito knockdown was evaluated at 3 minute intervals for the first 15 minutes and then at 5 minute intervals for the remainder of an hour. A small cotton ball soaked in sucrose solution was added on the screen top of the petri-dish as a drinking source after the 2 hour evaluation. Mortality was evaluated at 24 hours after exposure.
(§1) Treatments were allowed to dry overnight. USDA Petri Dish Method was used as initial screening protocol. Twenty, 4-6 day old female Culex mosquitoes were exposed to each treatment for 3 minutes and then moved to a clean untreated white paper index card. Treatments were replicated a minimum of three times. Mosquito knockdown was evaluated at various intervals through 3 hours after exposure. A small cotton ball soaked in sucrose solution was added on the screen top of the petri-dish as a drinking source. Mortality was evaluated at 24 hours after exposure.
as §1, with “female Culex quinquefasciatus mosquitoes were” for “female Culex mosquitoes were”, “intervals through 2 hours after” for “intervals through 3 hours after”, “solution was then added on” for “solution was added on”
as §1, with “Culex quinquefasciatus” for “Culex”, “hourly intervals.” for “intervals through 3 hours after exposure.”, “source after 2 hours.” for “source.”

[6] = system: Odorous House ant, Tapinoma sessile; test: Knockdown/mortality of ant workers under continuous exposure on treated glazed tile; type: in vivo; conditions: fipronil 0.001% (FIG. 45); ethiprole 0.01% (FIG. 53); with or without adjuvant
Text: Actual coverage was about 5″×5″ (or 161 cm2) for easy handling. Treatments were allowed to dry overnight. […] Treatments were replicated minimum three times.
(§2) Treatments were allowed to dry overnight. […] Treatments were replicated minimum three times.
(§3) Treatments were allowed to dry overnight. […] Treatments were replicated a minimum of three times.
Treatments were allowed to dry overnight. […] Treatments were replicated minimum of three times. […] The results are shown in FIG. 84 (No adjuvant alone treatment was performed).

[7] = system: Red Imported Fire ant (RIFA), Solenopsis invicta; test: as above; type: in vivo; conditions: fipronil 0.01% AI with or without adjuvant
Text: as §2, §3

[8] = system: susceptible/normal German cockroach (Monheim strain), Blattella germanica; test: Knockdown/mortality of male cockroaches under continuous exposure on treated glazed tile; type: in vivo; conditions: fipronil 0.001% (FIG. 48); ethiprole 0.01% (FIG. 55); with or without adjuvant
Procedure: Treatments were allowed to dry overnight. […] Treatments were replicated a minimum of three times. […]
Treatments were allowed to dry overnight. […] Treatments were replicated a minimum of three times. Cockroach knockdown/mortality was evaluated at 5 minute intervals for the first 60 minutes after exposure and then at 2, 18 and 24 hours.

[9] = system: Musca domestica, susceptible strain WHO(N); test: Contact efficacy against houseflies on filter papers in glass dishes; type: in vivo; conditions: % a.i. conc. in acetone on filter papers, Table 97
Procedure: Male Musca domestica, susceptible strain WHO(N), were used.
A solution of the active ingredient in acetone was prepared. A concentration row was made. After evaporation of the acetone (30′), the dishes were closed by a glass lid and transferred into the test room. One day later twenty flies, anaesthetized with CO2, are counted into each dish. At regular intervals, knock down was recorded (cumulatively). Each test consisted of one replicate. […]

For CC(C)=CC1C(C(=O)OCc2coc(Cc3ccccc3)c2)C1(C)C (stereo not drawn) [resmethrin], the “Likelihood of Direct Insect Cuticular Penetration” value (“Likelihood” for short) [1] is given as “Fast (classified as “FAST” when it has a Log P value of about >4.0)”, the “toxicity / efficacy of the substance alone (summary in words)” value (“toxicity / efficacy” for short) (Aedes aegypti mosquito) is given as “did not provide mosquito knockdown” and the “Log P” value [2] is given as 5.4.
For CC1(C)[C@H](C(=O)O[C@H](C#N)c2cccc(Oc3ccccc3)c2)[C@@H]1C=C(Br)Br [0.00064% DTM], the “% Mortality after” value ([3]; 15′) was 100%, the “% Mortality after” value ([3]; 30′) was 100% and the “% Mortality after” value ([3]; 1 h) was 100%. For the same compound, the “% Mortality after” value ([3]; 2 h) was 100%, the “% Mortality after” value ([3]; 4 h) was 100% and the “% Mortality after” value ([3]; 1 d) was 80%.
In the case of N#Cc1nn(-c2c(Cl)cc(C(F)(F)F)cc2Cl)c(N)c1[S+]([O-])C(F)(F)F (single isomer, unassigned) [fipronil, reference compound], the “Likelihood” value [1] is reported as “Fast (classified as “FAST” when it has a Log P value of about >4.0)”, the “time at which 100% mortality was seen” value ([4]; fipronil 0.001% with or without adjuvant (FIG. 43)) is reported as “around 25 hours” and the “mortality at 24 hours (FIG. 44)” value [5] is reported as “around 50%”. For the same compound, the “time at which 100% mortality was observed” value [6] was 25 h, the “time to a relatively high percentage of mortality (around 80%)” value [7] was “around 20 hours” and the “mortality at 25 hours” value [8] was “around 40%”. The “Log P” value [2] was 4.0.
For CC1(C)C(C=C(Br)Br)C1C(=O)OC(C#N)c1cccc(Oc2ccccc2)c1 (stereo not drawn) [0.000128% DTM], the “% Mortality after” value ([3]; 15′) was 20%, the “% Mortality after” value ([3]; 30′) was 50% and the “% Mortality after” value ([3]; 1 h) was 70%. For the same compound, the “% Mortality after” value ([3]; 2 h) was 70%, the “% Mortality after” value ([3]; 4 h) was 80% and the “% Mortality after” value ([3]; 1 d) was 50%.
For CCC(C)(C)C(=O)OC1=C(c2ccc(Cl)cc2Cl)C(=O)OC12CCCCC2 [spirodiclofen], the “Likelihood” value [1] is listed as “Fast (classified as “FAST” when it has a Log P value of about >4.0)” and the “Log P” value [2] is listed as 5.8.
In the case of CC1(C)CNC(=NN=C(/C=C/c2ccc(C(F)(F)F)cc2)/C=C/c2ccc(C(F)(F)F)cc2)NC1 [hydramethylnon], the “Likelihood” value [1] is listed as “Intermediate (classified as “INTERMEDIATE” when the Log P value is between about 2.0 and about 4.0)” and the “Log P” value [2] is listed as 2.3.
In the case of CN1COCN(Cc2cnc(Cl)s2)/C1=N\[N+](=O)[O-] [thiamethoxam], the “Likelihood” value [1] is listed as “Slow (classified as “SLOW” when the compound has a Log P value of about <2.0)” and the “Log P” value [2] is listed as 0.1.
In the case of CCOC(=O)NCCOc1ccc(Oc2ccccc2)cc1 [fenoxycarb], the “Likelihood” value [1] is given as “Fast (classified as “FAST” when it has a Log P value of about >4.0)” and the “Log P” value [2] is given as 4.1.
In the case of C/C(=N\C#N)N(C)Cc1ccc(Cl)nc1 [acetamiprid], the “Likelihood” value [1] is listed as “Slow (classified as “SLOW” when the compound has a Log P value of about <2.0)” and the “Log P” value [2] is listed as 0.8.
For COC(C)(C)CCC[C@H](C)C/C=C/C(C)=C/C(=O)OC(C)C (racemic) [methoprene], the “Likelihood” value [1] is listed as “Fast (classified as “FAST” when it has a Log P value of about >4.0)” and the “Log P” value [2] is listed as over 6.0.
In the case of CCNS(=O)(=O)C(F)(F)C(F)(F)C(F)(F)C(F)(F)C(F)(F)C(F)(F)C(F)(F)C(F)(F)F [sulfluramid], the “Likelihood” value [1] is listed as “Fast (classified as “FAST” when it has a Log P value of about >4.0)” and the “Log P” value [2] is listed as over 6.8.
For CC1(C)[C@H](C(=O)O[C@H](C#N)c2cccc(Oc3ccccc3)c2)[C@@H]1C=C(Br)Br [0.0000256% DTM], the “% Mortality after” value ([3]; 15′) was 10%, the “% Mortality after” value ([3]; 30′) was 20% and the “% Mortality after” value ([3]; 1 h) was 30%. The “% Mortality after” value ([3]; 2 h) was 20%, the “% Mortality after” value ([3]; 4 h) was 20% and the “% Mortality after” value ([3]; 1 d) was 60%.
With Cc1ccc(O)c(-n2nc3ccccc3n2)c1 [0.5% Compound B] the “% Mortality after” value ([3]; 15′) was 0%, the “% Mortality after” value ([3]; 30′) was 0% and the “% Mortality after” value ([3]; 1 h) was 0%. The “% Mortality after” value ([3]; 2 h) was 0%, the “% Mortality after” value ([3]; 4 h) was 0% and the “% Mortality after” value ([3]; 1 d) was 60%. For the same compound, the “% knock down after” value ([9]; 15′) was 0%, the “% knock down after” value ([9]; 30′) was 0% and the “% knock down after” value ([9]; 1 h) was 0%. For the same compound, the “% knock down after” value ([9]; 1.5 h) was 0%, the “% knock down after” value ([9]; 2 h) was 0% and the “% knock down after” value ([9]; 3 h) was 0%. For the same compound, the “% knock down after” value ([9]; 4 h) was 0%, the “% knock down after” value ([9]; 6 h) was 0% and the “% knock down after” value ([9]; 1 d) was 70%.
In the case of N#C/N=C1\SCCN1Cc1ccc(Cl)nc1 [thiacloprid], the “Likelihood” value [1] is given as “Slow (classified as “SLOW” when the compound has a Log P value of about <2.0)” and the “Log P” value [2] is given as 1.3.
For CC1(C)C(C=C(Cl)Cl)C1C(=O)OC(C#N)c1ccc(F)c(Oc2ccccc2)c1 (stereo not drawn) [β-cyfluthrin, reference compound], the “Likelihood” value [1] was “Fast (classified as “FAST” when it has a Log P value of about >4.0)”, the “toxicity / efficacy” value ([4]; Argentine ant, treated glazed tile) was “extremely effective at killing the ants” and the “toxicity / efficacy” value (Aedes aegypti mosquito) was 100% knockdown, or nearly 100% knockdown even in the absence of the adjuvant. For the same compound, the “Log P” value [2] was 5.9.
